From ChEMBL document CHEMBL1122390, “2-benzazepines. 5. Synthesis of pyrimido[5,4-d][2]benzazepines and their evaluation as anxiolytic agents” (J Med Chem, 1983)

Assays:
[1] = target: GABA-A receptor; anion channel; assay: Binding affinity measured by [3H]diazepam binding assay in rat
[2] = tested on: Mus musculus; assay: Effective dose required for anxiolytic activity in mice when administered perorally (Rotarod test); type: functional; conditions: po
[3] = tested on: Mus musculus; assay: Effective dose required for anxiolytic activity in mice when administered perorally (Inclined screen test); type: functional; conditions: po
[4] = tested on: Mus musculus; assay: Effective dose required for anxiolytic activity in mice when administered perorally (Antipentylene tetrazole test); type: functional; conditions: po
[5] = tested on: Mus musculus; assay: Effective dose required for anxiolytic activity in mice when administered perorally ( Rotarod test); type: functional; conditions: po
[6] = tested on: Monkey; assay: Minimum effective dose required for anticonflict effect in monkey when administered perorally; type: functional; conditions: Cercopithecidae, in Primates, po; read-out: MED
[7] = tested on: Rattus norvegicus; assay: Lowest dose required for depressant effect (significant decrease in unpunished responding) in rat when administered perorally; type: functional
[8] = tested on: Monkey; assay: Highest dose required for depressant effect when administered perorally; type: functional, Cercopithecidae
[9] = tested on: Rattus norvegicus; assay: Minimum effective dose required for anticonflict effect in rat when administered perorally; type: functional; conditions: po, read-out: MED
[10] = tested on: Felis catus; assay: Minimum effective dose required for drug induced ataxia (observable symptomatology) in cat when administered perorally; type: functional; conditions: po, read-out: MED
[11] = tested on: Mus musculus; assay: (§1) Effective dose required for ethanol interaction in mouse when administered perorally; conditions: po
[12] = tested on: Felis catus; assay: Minimum effective dose required for drug induced ataxia (observable symptomatology) in cat when administered perorally.; type: functional; conditions: po, read-out: MED
[13] = tested on: Mus musculus; assay: as §1; type: functional; conditions: po

Row | Structure (SMILES) | IC50 [1] | ED50 [2] | ED50 [3] | ED50 [4] | other results
1 | Nc1ncc2c(n1)-c1ccc(Cl)cc1C(c1ccccc1F)=NC2 | 2.8 nM | 5.1 mg/kg | > 400 mg/kg | 1.1 mg/kg | –
2 | Sc1ncc2c(n1)-c1ccc(Cl)cc1C(c1ccccc1Cl)=NC2 | 270 nM | 214 mg/kg | > 400 mg/kg | 18 mg/kg | –
3 | Cc1ncc2c(n1)-c1ccc(Cl)cc1C(c1ccccc1Cl)N(C)C2 (stereo not drawn) | 25 nM | 74 mg/kg | > 400 mg/kg | 7.7 mg/kg | –
4 | Nc1ncc2c(n1)-c1ccc(Cl)cc1C(c1ccccc1)=NC2 | 17 nM | 19 mg/kg | > 400 mg/kg | 4.9 mg/kg | –
5 | Cc1ncc2c(n1)-c1ccc(Cl)cc1C(c1ccccc1Cl)NC2 (stereo not drawn) | 30 nM | 18 mg/kg | > 400 mg/kg | 2.3 mg/kg | –
6 | Cc1ncc2c(n1)-c1ccc(Cl)cc1C(c1ccccc1)=NC2 | 17 nM | – | – | 9.3 mg/kg | –
7 | Cc1nc2c(c[n+]1[O-])C[N+]([O-])=C(c1ccccc1Cl)c1cc(Cl)ccc1-2 | 31 nM | 5.6 mg/kg | 240 mg/kg | 2.7 mg/kg | –
8 | Nc1ncc2c(n1)-c1ccc(Cl)cc1C(c1ccccc1Cl)=NC2 | 2.6 nM | 1.4 mg/kg | > 400 mg/kg | 0.07 mg/kg | –
9 | COc1ncc2c(n1)-c1ccc(Cl)cc1C(c1ccccc1F)=NC2 | 3.5 nM | 9 mg/kg | > 400 mg/kg | 2.6 mg/kg | –
10 | CN1CCN(c2ncc3c(n2)-c2ccc(Cl)cc2C(c2ccccc2F)=NC3)CC1 | 7.1 nM | 16 mg/kg | > 400 mg/kg | 1.2 mg/kg | –
11 | Fc1ccccc1C1=NCc2cncnc2-c2ccc(Cl)cc21 | 3.4 nM | 0.8 mg/kg | > 400 mg/kg | 0.37 mg/kg | –
12 | Cc1ncc2c(n1)-c1ccc(Cl)cc1C(c1ccccc1Cl)=NC2 | 9.2 nM | 7.2 mg/kg | > 400 mg/kg | 0.74 mg/kg | –
13 | Nc1ncc2c(n1)-c1ccccc1C(c1ccccc1)=NC2 | 60 nM | – | – | 17 mg/kg | –
14 | Cc1ncc2c(n1)-c1ccccc1C(c1ccccc1)=NC2 | 54 nM | 200 mg/kg | – | 84 mg/kg | –
15 | CSc1ncc2c(n1)-c1ccc(Cl)cc1C(c1ccccc1Cl)=NC2 | 18.5 nM | 33 mg/kg | > 400 mg/kg | 13 mg/kg | –
16 | CNC(=O)Cc1ncc2c(n1)-c1ccc(Cl)cc1C(c1ccccc1F)=NC2 | 7.6 nM | 4 mg/kg | > 400 mg/kg | 2.3 mg/kg | –
17 | Fc1ccccc1C1=NCc2cnc(Cl)nc2-c2ccc(Cl)cc21 | 5.3 nM | 24 mg/kg | > 400 mg/kg | 4.7 mg/kg | –

Row | Structure (SMILES) | IC50 [1] | ED50 [2] | ED50 [3] | ED50 [4] | other results
18 | O=C(O)Cc1ncc2c(n1)-c1ccc(Cl)cc1C(c1ccccc1F)=NC2 | 9.6 nM | – | > 400 mg/kg | 12 mg/kg | ED50 [5]: 30 mg/kg
19 | CN(C)CCCNc1ncc2c(n1)-c1ccc(Cl)cc1C(c1ccccc1F)=NC2 | 2.3 nM | 16 mg/kg | 187 mg/kg | 1.6 mg/kg | –
20 | Clc1ccc2c(c1)C(c1ccccc1Cl)NCc1cncnc1-2 (stereo not drawn) | 54 nM | 22 mg/kg | > 400 mg/kg | 6.9 mg/kg | –
21 | CN1C(=O)CN=C(c2ccccc2)c2cc(Cl)ccc21 [DIAZEPAM] | – | 3.2 mg/kg | > 25 mg/kg | 1.4 mg/kg | minimal effective dose [6]: 0.31 mg/kg; DUR [7]: 20 mg/kg; HED [8]: 20 mg/kg; minimal effective dose [9]: 1.25 mg/kg; minimal effective dose [10]: 0.2 mg/kg; ED50 [11]: 0.97 mg/kg
22 | CCOC(=O)Cc1ncc2c(n1)-c1ccc(Cl)cc1C(c1ccccc1F)=NC2 | 20 nM | > 200 mg/kg | – | 13 mg/kg | –
23 | CNc1ncc2c(n1)-c1ccc(Cl)cc1C(c1ccccc1F)=NC2 | 2.8 nM | 4 mg/kg | > 400 mg/kg | 0.58 mg/kg | –
24 | Nc1ncc2c(n1)-c1ccc(Cl)cc1C(c1ccccc1F)=[N+]([O-])C2 | 38 nM | – | – | – | –
25 | CN(C)c1ncc2c(n1)-c1ccc(Cl)cc1C(c1ccccc1F)=NC2 | 8.2 nM | 2.2 mg/kg | > 400 mg/kg | 1.1 mg/kg | –
26 | Cc1ncc2c(n1)-c1ccc(Cl)cc1C(c1ccccc1F)=NC2 | 3.1 nM | 7.8 mg/kg | > 400 mg/kg | 6.6 mg/kg | –
27 | [O-][N+]1=C(c2ccccc2Cl)c2cc(Cl)ccc2-c2ncncc2C1 | 39 nM | 4.9 mg/kg | 141 mg/kg | 0.87 mg/kg | –
28 | Cc1ncc2c(n1)-c1ccc(Cl)cc1C(c1ccccc1Cl)=[N+]([O-])C2 | 15 nM | 6.3 mg/kg | > 400 mg/kg | 0.72 mg/kg | –
29 | CC(C)c1ncc2c(n1)-c1ccc(Cl)cc1C(c1ccccc1Cl)=NC2 | 25 nM | 21 mg/kg | > 400 mg/kg | 3.8 mg/kg | –
30 | [O-][N+]1=C(c2ccccc2F)c2cc(Cl)ccc2-c2nc(S)ncc2C1 | 490 nM | > 200 mg/kg | > 400 mg/kg | > 100 mg/kg | –
31 | Clc1ccc2c(c1)C(c1ccccc1Cl)=NCc1cncnc1-2 | 2.8 nM | 3.6 mg/kg | 215 mg/kg | 0.59 mg/kg | minimal effective dose [6]: 0.04 mg/kg; DUR [7]: 2.5 mg/kg; minimal effective dose [12]: 0.5 mg/kg; HED [8]: 5 mg/kg; ED50 [13]: 2.2 mg/kg; minimal effective dose [9]: 0.31 mg/kg
32 | [O-][N+]1=C(c2ccccc2F)c2cc(Cl)ccc2-c2ncncc2C1 | 41 nM | 3.95 mg/kg | 277 mg/kg | 3.9 mg/kg | –
33 | CC1=NCC2CNC(c3ccccc3Cl)c3cc(Cl)ccc3C2=N1 (stereo not drawn) | 140 nM | 109 mg/kg | 200 mg/kg | 34 mg/kg | –
34 | Oc1ncc2c(n1)-c1ccc(Cl)cc1C(c1ccccc1F)=NC2 | 9.6 nM | 29 mg/kg | > 400 mg/kg | 6.3 mg/kg | –
